Results from ChEMBL document CHEMBL1137026, “Design and synthesis of novel Cdc25A-inhibitors having phosphate group as a hydrophilic residue” (Bioorg Med Chem Lett, 2004).
pIC50: −log10 of the molar value.

Experiments:
[1] = biological target: T1, M-phase inducer phosphatase 1 (Homo sapiens, UniProt P30304); assay: Inhibitory concentration against dual-specificity phosphatase Cell division cycle (Cdc) 25A
T1 sequence (P30304 whole entry): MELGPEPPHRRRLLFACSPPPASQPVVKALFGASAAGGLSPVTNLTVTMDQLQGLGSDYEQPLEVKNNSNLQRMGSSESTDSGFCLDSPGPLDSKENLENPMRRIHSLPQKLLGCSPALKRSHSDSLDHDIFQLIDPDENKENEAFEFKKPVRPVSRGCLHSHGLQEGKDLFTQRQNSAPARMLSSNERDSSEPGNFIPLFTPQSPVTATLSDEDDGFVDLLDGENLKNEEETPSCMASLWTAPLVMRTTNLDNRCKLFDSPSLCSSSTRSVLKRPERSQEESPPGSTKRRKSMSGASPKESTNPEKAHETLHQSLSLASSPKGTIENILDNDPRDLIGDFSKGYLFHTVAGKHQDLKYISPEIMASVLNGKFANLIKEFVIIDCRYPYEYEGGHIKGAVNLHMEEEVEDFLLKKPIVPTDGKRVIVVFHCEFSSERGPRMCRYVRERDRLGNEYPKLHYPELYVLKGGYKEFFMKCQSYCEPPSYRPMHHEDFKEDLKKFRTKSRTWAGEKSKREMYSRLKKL

[2] = biological target: T2, M-phase inducer phosphatase 2 (Homo sapiens, UniProt P30305); assay: Inhibitory concentration against dual-specificity phosphatase Cell division cycle (Cdc) 25B
T2 sequence (P30305 whole entry): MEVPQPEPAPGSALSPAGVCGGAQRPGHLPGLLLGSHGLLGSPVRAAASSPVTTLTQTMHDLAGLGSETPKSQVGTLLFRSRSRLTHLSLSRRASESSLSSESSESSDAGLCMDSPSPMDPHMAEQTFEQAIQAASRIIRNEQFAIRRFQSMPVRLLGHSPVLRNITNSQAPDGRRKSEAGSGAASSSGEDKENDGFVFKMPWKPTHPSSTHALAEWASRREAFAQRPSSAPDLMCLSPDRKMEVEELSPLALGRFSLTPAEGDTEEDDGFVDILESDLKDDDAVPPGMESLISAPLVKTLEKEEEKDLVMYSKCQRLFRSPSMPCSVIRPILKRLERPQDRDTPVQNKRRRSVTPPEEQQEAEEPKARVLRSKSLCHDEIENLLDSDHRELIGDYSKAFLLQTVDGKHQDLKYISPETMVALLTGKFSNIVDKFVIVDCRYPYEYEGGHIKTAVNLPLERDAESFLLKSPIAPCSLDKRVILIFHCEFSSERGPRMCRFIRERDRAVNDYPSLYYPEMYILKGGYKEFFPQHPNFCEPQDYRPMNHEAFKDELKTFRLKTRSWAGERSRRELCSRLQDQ

Row | Compound | pIC50 [1] | pIC50 [2]
1 | CC(C)CCC[C@@H](C)[C@H]1CCC2[C@@](C)(CO)CCC[C@@]21C (some centres not stated) | 4.64 | 5.35
2 | CC(C)CCC[C@@H](C)[C@H]1CCC2[C@@](C)(CCOP(=O)(O)O)CCC[C@@]21C (some centres not stated) | 4.61 | 5.17
3 | CC(C)CCC[C@@H](C)[C@H]1CCC2[C@@](C)(CCO)CCC[C@@]21C (some centres not stated) | 5.16 | 5.89
4 | CC(C)CCC[C@@H](C)[C@H]1CCC2[C@@H](O)CCC[C@@]21C (some centres not stated) | 5.41 | 5.24
5 | CC(C)CCC[C@@H](C)[C@H]1CCC2[C@](C)(CCO)CCC[C@@]21C (some centres not stated) | 5.26 | 5.77
6 | CC(C)CCC[C@@H](C)[C@H]1CCC2[C@](C)(CCOP(=O)(O)O)CCC[C@@]21C (some centres not stated) | 5.26 | 5.92
7 | CC(C)CCC[C@@H](C)[C@H]1CCC2[C@@](C)(COP(=O)(O)O)CCC[C@@]21C (some centres not stated) | 6.15 | 5.43
8 | CC(C)CCC[C@@H](C)[C@H]1CCC2[C@](C)(CO)CCC[C@@]21C (some centres not stated) | 5.07 | 5.48
9 | CC(C)CCC[C@@H](C)[C@H]1CCC2/C(=C/C(=O)O)CCC[C@@]21C (some centres not stated) | 4.76 | 5.23
10 | CC(C)CCC[C@@H](C)[C@H]1CCC2[C@@H](OP(=O)(O)O)CCC[C@@]21C (some centres not stated) | 5.09 | 5.30
11 | CC(C)CCC[C@@H](C)[C@H]1CCC2C(C)(COP(=O)(O)O)CCC[C@@]21C (single isomer, unassigned) | 6.05 | 5.52
